Measured values: patent US20170050957A1, “4-AMINO-6-(HETEROCYCLIC)PICOLINATES AND 6-AMINO-2-(HETEROCYCLIC)PYRIMIDINE-4-CARBOXYLATES AND THEIR USE AS HERBICIDES” (Dow AgroSciences LLC, priority 2013, published 2017)
Like-named read-outs stand apart in the source and are kept apart here.

Columns and labels:
[1] = tested on: Key Broadleaf Weed and Crop Species; assay: Post-emergent Test II herbicidal activity (Table 15); type: in vivo; conditions: post-emergence, 336 h, 14 d; for pest or weed control at 35 g/ha: 35 g ai/ha; for pest or weed control at 70 g/ha: 70 g ai/ha; for pest or weed control at 140 g/ha: 140 g ai/ha; for pest or weed control at 280 g/ha: 280 g ai/ha
Summary of the method: (§1)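 Plants at first-second true leaf stage, grown 7-21 d in greenhouse (~15 h photoperiod, 23-29 °C day), were track-sprayed at 187 L/ha with compound in acetone/DMSO/water/isopropanol/crop oil/Triton X-155 at a high rate plus 1/2× to 1/16× dilutions. Injury scored visually after 14 d versus untreated plants, 0 (none) to 100% (complete kill).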

[2] = tested on: Key Grass and Sedge Weeds as well as Grass Crops; assay: Post-emergent Test II herbicidal activity (Table 16); type: in vivo; conditions: post-emergence, 336 h, 14 d; for pest or weed control at 35 g/ha: 35 g ai/ha; for pest or weed control at 70 g/ha: 70 g ai/ha; for pest or weed control at 140 g/ha: 140 g ai/ha; for pest or weed control at 280 g/ha: 280 g ai/ha
Summary of the method: as §1

[3] = Abutilon theophrasti, velvetleaf (Abutilon theophrasti), read-out: Visual Growth Reduction (%) 14 Days After Application, ABUTH
[4] = Amaranthus retroflexus, redroot pigweed (Amaranthus retroflexus), read-out: Visual Growth Reduction (%) 14 Days After Application, AMARE
[5] = Brassica napus, oilseed rape, canola (Brassica napus), read-out: Visual Growth Reduction (%) 14 Days After Application, BRSNN
[6] = Chenopodium album, lambsquarters (Chenopodium album), read-out: Visual Growth Reduction (%) 14 Days After Application, CHEAL
[7] = Euphorbia heterophylla, wild poinsettia (Euphorbia heterophylla), read-out: Visual Growth Reduction (%) 14 Days After Application, EPHHL
[8] = Helianthus annuus, sunflower (Helianthus annuus), read-out: Visual Growth Reduction (%) 14 Days After Application, HELAN
[9] = Cyperus esculentus, yellow nutsedge (Cyperus esculentus), read-out: Visual Growth Reduction (%) 14 Days After Application, CYPES
[10] = Echinochloa crus-galli, barnyardgrass (Echinochloa crus-galli), read-out: Visual Growth Reduction (%) 14 Days After Application, ECHCG
[11] = Oryza sativa, rice (Oryza sativa), read-out: Visual Growth Reduction (%) 14 Days After Application, ORYSA
[12] = Setaria faberi, giant foxtail (Setaria faberi), read-out: Visual Growth Reduction (%) 14 Days After Application, SETFA
[13] = Triticum aestivum, wheat, spring (Triticum aestivum), read-out: Visual Growth Reduction (%) 14 Days After Application, TRZAS
[14] = Zea mays, maize, corn (Zea mays), read-out: Visual Growth Reduction (%) 14 Days After Application, ZEAMX

melting point: 84 to 87 °C
SMILES: COC(=O)c1nc(-c2ccc3occc3c2)cc(N)c1Cl [Compound 2.03]
pest or weed control at 35 g/ha [1, 3]: 95 to 100%
pest or weed control at 70 g/ha [1, 3]: 95 to 100%
pest or weed control at 140 g/ha [1, 3]: 95 to 100%
pest or weed control at 280 g/ha [1, 3]: 95 to 100%
pest or weed control at 35 g/ha [1, 4]: 60 to 74%
pest or weed control at 70 g/ha [1, 4]: 85 to 94%
pest or weed control at 140 g/ha [1, 4]: 85 to 94%
pest or weed control at 280 g/ha [1, 4]: 95 to 100%
pest or weed control at 35 g/ha [1, 5]: 0 to 29%
pest or weed control at 70 g/ha [1, 5]: 0 to 29%
pest or weed control at 140 g/ha [1, 5]: 0 to 29%
pest or weed control at 280 g/ha [1, 5]: 30 to 44%
pest or weed control at 35 g/ha [1, 6]: 85 to 94%
pest or weed control at 70 g/ha [1, 6]: 95 to 100%
pest or weed control at 140 g/ha [1, 6]: 95 to 100%
pest or weed control at 280 g/ha [1, 6]: 95 to 100%
pest or weed control at 35 g/ha [1, 7]: 45 to 59%
pest or weed control at 70 g/ha [1, 7]: 75 to 84%
pest or weed control at 140 g/ha [1, 7]: 75 to 84%
pest or weed control at 280 g/ha [1, 7]: 85 to 94%
pest or weed control at 35 g/ha [1, 8]: 0 to 29%
pest or weed control at 70 g/ha [1, 8]: 60 to 74%
pest or weed control at 140 g/ha [1, 8]: 75 to 84%
pest or weed control at 280 g/ha [1, 8]: 85 to 94%
pest or weed control at 35 g/ha [2, 9]: 0 to 29%
pest or weed control at 70 g/ha [2, 9]: 0 to 29%
pest or weed control at 140 g/ha [2, 9]: 0 to 29%
pest or weed control at 280 g/ha [2, 9]: 0 to 29%
pest or weed control at 35 g/ha [2, 10]: 30 to 44%
pest or weed control at 70 g/ha [2, 10]: 60 to 74%
pest or weed control at 140 g/ha [2, 10]: 85 to 94%
pest or weed control at 280 g/ha [2, 10]: 95 to 100%
pest or weed control at 35 g/ha [2, 11]: 0 to 29%
pest or weed control at 70 g/ha [2, 11]: 0 to 29%
pest or weed control at 140 g/ha [2, 11]: 0 to 29%
pest or weed control at 280 g/ha [2, 11]: 0 to 29%
pest or weed control at 35 g/ha [2, 12]: 0 to 29%
pest or weed control at 70 g/ha [2, 12]: 0 to 29%
pest or weed control at 140 g/ha [2, 12]: 30 to 44%
pest or weed control at 280 g/ha [2, 12]: 30 to 44%
pest or weed control at 35 g/ha [2, 13]: 0 to 29%
pest or weed control at 70 g/ha [2, 13]: 0 to 29%
pest or weed control at 140 g/ha [2, 13]: 0 to 29%
pest or weed control at 280 g/ha [2, 13]: 0 to 29%
pest or weed control at 35 g/ha [2, 14]: 0 to 29%
pest or weed control at 70 g/ha [2, 14]: 0 to 29%
pest or weed control at 140 g/ha [2, 14]: 0 to 29%
pest or weed control at 280 g/ha [2, 14]: 60 to 74%
